Measured values: publication PMC2852139 (Biochemistry, 2010)

Molecular target: T1, Apaf-1 (Homo sapiens, UniProt O14727)
T1 sequence (O14727 1-1248): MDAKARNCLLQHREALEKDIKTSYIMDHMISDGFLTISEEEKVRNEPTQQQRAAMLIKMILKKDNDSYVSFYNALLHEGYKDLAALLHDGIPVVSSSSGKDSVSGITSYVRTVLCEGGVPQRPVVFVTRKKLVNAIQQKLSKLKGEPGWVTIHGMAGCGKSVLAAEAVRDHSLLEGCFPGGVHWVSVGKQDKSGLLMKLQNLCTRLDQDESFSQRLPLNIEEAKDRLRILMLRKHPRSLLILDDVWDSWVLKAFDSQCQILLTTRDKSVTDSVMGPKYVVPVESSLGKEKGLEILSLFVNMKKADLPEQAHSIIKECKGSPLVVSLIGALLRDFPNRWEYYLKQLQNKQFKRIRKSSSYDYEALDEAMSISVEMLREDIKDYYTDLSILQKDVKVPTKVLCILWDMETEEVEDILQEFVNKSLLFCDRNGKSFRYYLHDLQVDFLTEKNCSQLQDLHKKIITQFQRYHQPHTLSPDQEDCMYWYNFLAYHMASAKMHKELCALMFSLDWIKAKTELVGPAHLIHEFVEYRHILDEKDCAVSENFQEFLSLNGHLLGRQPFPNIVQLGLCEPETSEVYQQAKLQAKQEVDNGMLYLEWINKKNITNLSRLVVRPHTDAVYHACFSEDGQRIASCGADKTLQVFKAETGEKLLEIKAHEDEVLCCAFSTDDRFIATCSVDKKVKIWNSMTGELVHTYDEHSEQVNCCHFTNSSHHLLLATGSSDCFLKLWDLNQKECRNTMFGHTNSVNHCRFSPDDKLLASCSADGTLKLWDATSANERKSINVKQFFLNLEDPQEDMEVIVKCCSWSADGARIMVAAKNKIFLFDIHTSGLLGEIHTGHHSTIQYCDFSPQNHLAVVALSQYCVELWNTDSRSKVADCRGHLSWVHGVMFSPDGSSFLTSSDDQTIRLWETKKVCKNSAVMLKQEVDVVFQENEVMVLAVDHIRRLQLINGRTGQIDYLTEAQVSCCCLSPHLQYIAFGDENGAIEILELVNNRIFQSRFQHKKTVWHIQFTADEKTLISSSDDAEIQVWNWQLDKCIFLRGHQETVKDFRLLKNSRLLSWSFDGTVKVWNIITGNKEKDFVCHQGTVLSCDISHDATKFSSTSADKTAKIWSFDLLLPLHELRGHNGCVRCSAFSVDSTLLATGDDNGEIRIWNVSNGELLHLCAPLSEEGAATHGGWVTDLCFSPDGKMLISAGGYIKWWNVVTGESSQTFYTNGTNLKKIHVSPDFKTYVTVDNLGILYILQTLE
T1 sequence (P06454 2-111 partner): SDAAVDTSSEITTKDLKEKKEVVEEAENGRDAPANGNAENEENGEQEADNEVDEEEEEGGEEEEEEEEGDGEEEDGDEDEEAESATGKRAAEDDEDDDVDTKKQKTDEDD
Test: ELISA and FLAG-IP of recombinant Apaf-1/ProT interaction blocked by BETT
Type: biochemical

`Sc1nnc(-c2cc3ccccc3o2)n1-c1ccccc1` [BETT, 5-(2-Benzofuryl)-4-phenyl-1,2,4-triazole-3-thiol] was tested, and the EC50 was ~50 µM.
